Source: US4882349A, “Pyrrolacetic amides having antiinflammatory activity” (priority 1982, dated 1989)
Read-outs that look alike come from different tables or passages of the source.

Key:
in vivo [1] = settings: mouse
[2] = system: brewers' yeast-induced hyperthermia; assay: antipyretic activity, brewers' yeast-induced hyperthermia; format: in vivo, albino male Wistar rats
Method: The animals were caged under the same conditions as those described in the preceding tests. Five hours following […], determined by a rectal probe connected to a YSI thermometer (73 ATP model, Yellow Springs Instrument Company) were selected for the experiment. The animals were then randomized into groups of 10 and the compounds under examination and the vehicle were administered via the oral and parenteral routes testing each dose in two groups. Body temperature was determined at one, two and three hours after administration of the substances. […]

gastric lesions = format: in vivo, male Wistar rats; settings: 4 consecutive days; for gastric damage index: I=mean no. of lesions+mean of severity+% incidence/10; for mean severity: scale 0 (no lesion) to 5 (perforations)
Method: Male Wistar rats weighing 180 g were randomized into groups of 10. Three doses of each compound were administered. One group received the vehicle alone (10 ml/kg b.w.). Each dose was given orally for four days consecutively and the rats were sacrificed on the fifth day for necropsy. The ulcerogenic effect was evaluated by the following scale:
(1) each haemorrhagic point at least 1 mm in diameter was scored as 1 lesion,
(2) haemorrhagic points less than 1 mm in diameter were scored in the following manner:
(c) 20 to 29=three lesions
By means of this scale it was possible to obtain the gastric damage index:
I=mean no. of lesions+mean of severity+% incidence/10

in vivo [3] = settings: rat
[4] = system: phenyl-p-quinone-induced writhing (abdominal contractions); assay: phenylquinone-induced writhing test, oral administration 1-24 h before phenyl-quinone (duration of analgesia); format: in vivo, male Wistar rats
Method: Male Wistar rats weighing 110±5 g were caged for 10 days at 22±1° C. and given a balanced diet with free access to water. Twenty-four hours before the experiment the animals were randomized into groups of 10 and fasted for 14 hours but with free access to water. Each dose was tested in 3 groups of rats. […] alone (0.5% carboxymethyl-cellulose in physiological saline) in the control animals, each rat was given 2 ml of a 5% absolute ethanol aqueous solution containing 0.36% of phenyl-p-quinone (Sigma Chemical Company) in order to provoke writhings. Fifteen minutes after administration of phenyl-p-quinone the number of contractions were counted for 20 minutes. The inhibiting effect of the compounds under examination on the abdominal contractions induced by phenyl-p-quinone was calculated by the following formula: % protection= [formula]

Structure (SMILES): Cc1ccc(C(=O)c2ccc(CC(=O)N3CCOCC3)n2C)cc1 [Compound 3-a, 1-methyl-5-p-toluoylpyrrole-2-N-(4-morpholinyl) acetamide]
- LD50 (in vivo [1]; ip): 1500 mg/kg
- LD50 (in vivo [1]; po): > 2000 mg/kg
- % Temperature decrease ([2]; 50 mg/Kg i.p., 1 h): 16.0%
- % Temperature decrease ([2]; 50 mg/Kg i.p., 2 h): 26.0%
- % Temperature decrease ([2]; 50 mg/Kg i.p., 3 h): 36.7%
- % Temperature decrease ([2]; 50 mg/Kg per os, 1 h): 15.5%
- % Temperature decrease ([2]; 50 mg/Kg per os, 2 h): 23.0%
- % Temperature decrease ([2]; 50 mg/Kg per os, 3 h): 32.1%
- % Temperature decrease ([2]; 75 mg/Kg i.p., 1 h): 19.0%
- % Temperature decrease ([2]; 75 mg/Kg i.p., 2 h): 30.2%
- % Temperature decrease ([2]; 75 mg/Kg i.p., 3 h): 39.4%
- % Temperature decrease ([2]; 75 mg/Kg per os, 1 h): 16.2%
- % Temperature decrease ([2]; 75 mg/Kg per os, 2 h): 29.1%
- % Temperature decrease ([2]; 75 mg/Kg per os, 3 h): 39.4%
- % Temperature decrease ([2]; 100 mg/Kg i.p., 1 h): 21.3%
- % Temperature decrease ([2]; 100 mg/Kg i.p., 2 h): 36.1%
- % Temperature decrease ([2]; 100 mg/Kg i.p., 3 h): 58.1%
- % Temperature decrease ([2]; 100 mg/Kg per os, 1 h): 22.0%
- % Temperature decrease ([2]; 100 mg/Kg per os, 2 h): 29.5%
- % Temperature decrease ([2]; 100 mg/Kg per os, 3 h): 56.1%
- % incidence/10 (head is drawing 38) (gastric lesions; 50 mg/Kg orally): 7
- mean no. of lesions (gastric lesions; 50 mg/Kg orally): 1
- gastric damage index (gastric lesions; 50 mg/Kg orally): 9
- mean severity (gastric lesions; 50 mg/Kg orally): 1
- % incidence/10 (head is drawing 38) (gastric lesions; 100 mg/Kg orally): 8
- mean no. of lesions (gastric lesions; 100 mg/Kg orally): 1.5
- gastric damage index (gastric lesions; 100 mg/Kg orally): 11.5
- mean severity (gastric lesions; 100 mg/Kg orally): 2
- % incidence/10 (head is drawing 38) (gastric lesions; 200 mg/Kg orally): 9
- mean no. of lesions (gastric lesions; 200 mg/Kg orally): 1.5
- gastric damage index (gastric lesions; 200 mg/Kg orally): 12.5
- mean severity (gastric lesions; 200 mg/Kg orally): 2
- LD50 (in vivo [3]; ip): 1370 mg/kg
- LD50 (in vivo [3]; po): > 2400 mg/kg

Structure (SMILES): Cc1ccc(C(=O)c2ccc(CC(=O)N3CCN(C)CC3)n2C)cc1 [Compound 3-b, 1-methyl-5-p-toluoylpyrrole-2-N-[(4-methyl)-1-piperazinyl] acetamide]
- LD50 (in vivo [1]; ip): 770 mg/kg
- LD50 (in vivo [1]; po): 1200 mg/kg
- % Temperature decrease ([2]; 50 mg/Kg i.p., 1 h): 12.9%
- % Temperature decrease ([2]; 50 mg/Kg i.p., 2 h): 23.0%
- % Temperature decrease ([2]; 50 mg/Kg i.p., 3 h): 38.3%
- % Temperature decrease ([2]; 50 mg/Kg per os, 1 h): 13.1%
- % Temperature decrease ([2]; 50 mg/Kg per os, 2 h): 21.0%
- % Temperature decrease ([2]; 50 mg/Kg per os, 3 h): 36.2%
- % Temperature decrease ([2]; 75 mg/Kg i.p., 1 h): 23.4%
- % Temperature decrease ([2]; 75 mg/Kg i.p., 2 h): 29.0%
- % Temperature decrease ([2]; 75 mg/Kg i.p., 3 h): 48.5%
- % Temperature decrease ([2]; 75 mg/Kg per os, 1 h): 19.0%
- % Temperature decrease ([2]; 75 mg/Kg per os, 2 h): 29.1%
- % Temperature decrease ([2]; 75 mg/Kg per os, 3 h): 40.6%
- % Temperature decrease ([2]; 100 mg/Kg i.p., 1 h): 32.9%
- % Temperature decrease ([2]; 100 mg/Kg i.p., 2 h): 39.0%
- % Temperature decrease ([2]; 100 mg/Kg i.p., 3 h): 60.1%
- % Temperature decrease ([2]; 100 mg/Kg per os, 1 h): 27.0%
- % Temperature decrease ([2]; 100 mg/Kg per os, 2 h): 35.0%
- % Temperature decrease ([2]; 100 mg/Kg per os, 3 h): 59.7%
- % incidence/10 (head is drawing 38) (gastric lesions; 50 mg/Kg orally): 7
- mean no. of lesions (gastric lesions; 50 mg/Kg orally): 1
- gastric damage index (gastric lesions; 50 mg/Kg orally): 9
- mean severity (gastric lesions; 50 mg/Kg orally): 1
- % incidence/10 (head is drawing 38) (gastric lesions; 100 mg/Kg orally): 7
- mean no. of lesions (gastric lesions; 100 mg/Kg orally): 1
- % incidence/10 (head is drawing 38) (gastric lesions; 200 mg/Kg orally): 8
- mean no. of lesions (gastric lesions; 200 mg/Kg orally): 2
- LD50 (in vivo [3]; ip): 590 mg/kg
- LD50 (in vivo [3]; po): 1000 mg/kg

Structure (SMILES): Cc1ccc(C(=O)c2ccc(CC(=O)O)n2C)cc1 [Tolmetin Na.2H2 O, 1-methyl-5-p-toluoylpyrrole-2-acetic acid, reference compound]
- % Protection ([4]; 10 mg/Kg oral, 1 h before phenyl-quinone): 51.8%
- % Protection ([4]; 10 mg/Kg oral, 2 h before phenyl-quinone): 35.5%
- % Protection ([4]; 10 mg/Kg oral, 4 h before phenyl-quinone): 32.0%
- % Protection ([4]; 10 mg/Kg oral, 6 h before phenyl-quinone): 17.2%
- % Protection ([4]; 10 mg/Kg oral, 8 h before phenyl-quinone): 20.2%
- % Protection ([4]; 10 mg/Kg oral, 16 h before phenyl-quinone): 3.0%
- % Protection ([4]; 10 mg/Kg oral, 24 h before phenyl-quinone): 5.0%
- % Protection ([4]; 20 mg/Kg oral, 1 h before phenyl-quinone): 79.6%
- % Protection ([4]; 20 mg/Kg oral, 2 h before phenyl-quinone): 78.0%
- % Protection ([4]; 20 mg/Kg oral, 4 h before phenyl-quinone): 50.0%
- % Protection ([4]; 20 mg/Kg oral, 6 h before phenyl-quinone): 45.3%
- % Protection ([4]; 20 mg/Kg oral, 8 h before phenyl-quinone): 40.1%
- % Protection ([4]; 20 mg/Kg oral, 16 h before phenyl-quinone): 8.7%
- % Protection ([4]; 20 mg/Kg oral, 24 h before phenyl-quinone): 4.2%
- % Protection ([4]; 50 mg/Kg oral, 1 h before phenyl-quinone): 81.0%
- % Protection ([4]; 50 mg/Kg oral, 2 h before phenyl-quinone): 84.6%
- % Protection ([4]; 50 mg/Kg oral, 4 h before phenyl-quinone): 62.5%
- % Protection ([4]; 50 mg/Kg oral, 6 h before phenyl-quinone): 49.7%
- % Protection ([4]; 50 mg/Kg oral, 8 h before phenyl-quinone): 45.0%
- % Protection ([4]; 50 mg/Kg oral, 16 h before phenyl-quinone): 9.3%
- % Protection ([4]; 50 mg/Kg oral, 24 h before phenyl-quinone): 3.8%
